The results in this text go back to patent US20070275935A1, “Estratriene Derivatives” (priority 2003, published 2007).

Test [1] has as its system Human airway smooth muscle (HASM) cells. Nature of the test: Thrombin-induced proliferation of human airway smooth muscle (HASM) cells, cell number after 48 h. It is filed as cell-based. As to conditions: for HASM- Thr pIC25 / HASM- Thr pIC75: two site model, thrombin-induced proliferation; for HASM- Thr pIC25: first phase (inhibition up to 50%); for HASM- Thr pIC75: second phase (inhibition up to 100%). The essentials: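 Primary human bronchial smooth muscle cells seeded at 1.5×10^4 cells/cm², serum-starved 24 h, pre-incubated with compound 30 min, then stimulated 48 h with thrombin 0.3 U/ml. Cells counted by haemocytometer with trypan blue; pIC50 as negative log concentration halving proliferative response.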

In test [2] the test system is GM-CSF production by Human Airway Smooth Muscle Cells. Nature of the test: Interleukin-1α-mediated GM-CSF production by HASM cells (ELISA). The format is cell-based. The settings on record: inhibition of interleukin-1α (1 ng/ml)-mediated GM-CSF production; concentration not given; * not defined.
The target of another test is T1, Estrogen Receptor (ER) (Rattus norvegicus, UniProt P06211).
T1 construct: using rat uterine cytosol as a source of ER; from tissue; host or cells: rat uterus, cytosol fraction (30000 x g supernatant)
T1 sequence (P06211 1-600): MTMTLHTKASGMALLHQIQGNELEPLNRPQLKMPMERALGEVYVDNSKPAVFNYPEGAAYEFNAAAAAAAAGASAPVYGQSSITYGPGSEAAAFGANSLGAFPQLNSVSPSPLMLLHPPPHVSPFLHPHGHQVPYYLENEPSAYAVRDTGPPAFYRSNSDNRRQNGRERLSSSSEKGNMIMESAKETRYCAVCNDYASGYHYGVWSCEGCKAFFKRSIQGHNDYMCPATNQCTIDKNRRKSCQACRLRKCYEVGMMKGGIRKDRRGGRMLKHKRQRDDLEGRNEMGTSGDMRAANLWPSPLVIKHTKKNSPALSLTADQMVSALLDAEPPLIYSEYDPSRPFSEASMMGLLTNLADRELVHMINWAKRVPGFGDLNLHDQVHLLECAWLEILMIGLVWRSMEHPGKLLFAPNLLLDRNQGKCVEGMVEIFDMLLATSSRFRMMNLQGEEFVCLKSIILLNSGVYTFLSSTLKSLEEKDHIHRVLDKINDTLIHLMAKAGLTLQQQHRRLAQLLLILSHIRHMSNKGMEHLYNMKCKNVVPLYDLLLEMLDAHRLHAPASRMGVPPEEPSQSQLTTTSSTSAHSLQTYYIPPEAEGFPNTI
Nature of the test: Estrogen receptor binding assay, 3H-estradiol displacement from rat uterine cytosol. As to conditions: 3H-estradiol displacement, cytosolic preparations of rat uterus; pIC50 of 4.00 = inactive; read-out: ER-RLB pIC50 (converted). The essentials: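 Cytosol from Brown Norway rat uteri, homogenised in 10 mM Tris pH 7.4 with EDTA, glycerol and PMSF, spun at 30000×g, diluted to about 1 mg/ml protein.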

In test [3] the test system is human breast tumour cell line, MCF7. The test is described as follows: Proliferation of MCF7 cells in response to 5% FCS or EGF. It is filed as cell-based. The settings on record: Homo sapiens, MCF7; proliferation in response to 5% FCS; pIC50 of 4.00 = inactive. The procedure:
(§1) The effects of 4NO were evaluated in a number of non-smooth muscle cell types including the type II airway epithelial cell line, A549 (ATCC accession number ATCC CCL-185 Lung carcinoma human) (FIG. 2); the human breast tumour cell line, MCF7, (ATTC accession number ATCC HTB-22 breast adenocarcinoma, human) which expresses the estrogen receptor (FIG. 3); and in bovine aortic endothelial cells (BAEC) (FIG. 4).
(§2) The effects of test compounds were examined on proliferation of A549 cells in response to 5% fetal calf serum (FCS). Analogues were pre-incubated with A549 cells for 30 min before the addition of FCS. The incubation continued for 48 h before cell enumeration. Data are expressed as a percentage of the cell number in vehicle treated wells and are presented as the mean and standard error of the mean. Similarly the effects of 2MEO and 4NO on proliferation of MCF7 in response to 5% FCS or epidermal growth factor (EGF, 300 pM) were examined, as were the effects of 2MEO and 4NO on proliferation of BAEC in response to 5% FCS. The incubation parameters were the same as described above and results are presented as the mean and standard error of the mean.
(§3) This assay was also used to evaluate the ability of other compounds to inhibit the proliferation of non-smooth muscle cells MCF7 and A549 (described above) in response to 5% FCS. The results of this assay are presented in Table 4 (columns G and H respectively). The potency of the compounds was considerably less in inhibiting proliferation of these cell lines than it was for HASM. These observations support the contention that there are cell type-specific targets for the actions of these compounds. Such assays may also be adopted to examine the effect of other disclosed compounds on these cells or on other non-smooth muscle cells of interest.

In test [4] the test system is type II airway epithelial cell line, A549. Nature of the test: Proliferation of A549 cells in response to 5% FCS. It is filed as cell-based, human. As to conditions: Homo sapiens, A549; proliferation in response to 5% FCS; pIC50 of 4.00 = inactive; read-out: A549 PIC50 (converted). The procedure:
as §1, §2, §3

The next test relates to Pulmonary fibroblasts. Nature of the test: bFGF-induced proliferation of human pulmonary fibroblasts. The format is cell-based. As to conditions: inhibition of bFGF (300 pM)-induced proliferation, mean and SEM, minimum 3 experiments; 1 μM; * not defined. The method, then:
Samples of parenchyma from human lung transplant recipients were dissected away from the pleura, chopped into fragments of less than 1 mm^2 and allowed to adhere to plastic culture dishes in a minimal volume of DMEM containing serum (10%) and antibiotics (as used for HASM culture). After the tissue fragments had adhered to the base of the dish additional medium was added. Medium was changed twice weekly until an explant culture formed, at which time the tissue fragments were removed and the cells were passaged in a 1:3 split ratio by exposure to trypsin weekly to produce pulmonary fibroblast cultures.
Pulmonary fibroblasts were cultured in DMEM, serum-deprived for 24 h, in the presence or absence of the test compounds, and then stimulated with 300 pM bFGF for 48 h before harvest and counting of viable cells. An increase pulmonary fibroblast cell number was prevented by 4NOM over the concentration range of 1 to 1000 nM.
A range of the disclosed compounds was subsequently examined using the above assay system, and the results are summarized in Column E of Table 4. […] The proliferation of parenchymal fibroblasts is important in the development of pulmonary fibrosis.

On to `COc1ccc(CON=C2CCC3C4CCc5cc(O)c(OC)cc5C4CCC23C)cc1` (stereo not drawn) [CP-DM-4-34, 2-methoxyestrone-17-(4-methoxybenzyl)oxime], for which the “HASM- Thr pIC25” value in test [1] was found to be 4.00. Also, in test [1], the “HASM- Thr pIC75” value was determined as 4.00. The “HASM - GM-CSF” value in test [2] is recorded as 29 ± 12. Besides, the results for the IC50 (at Estrogen Receptor (ER); in test [3]; in test [4]) were 40.7 µM, 4.07 µM and 2140 nM, respectively.
Consider `CO/N=C1\CC[C@H]2[C@@H]3C/C(=N\OCc4cc(F)cc(F)c4)c4cc(O)c(OC)cc4[C@H]3CC[C@]12C` [CP-DM-4-74, 6-(3,5difluorobenzyloxy)imino-2-methoxyestrone-17-methyloxime], for which the IC50 in test [1] (Homo sapiens, negative log of the concentration that reduces the thrombin-induced proliferative response by 50%, pIC50 of 4.00 = inactive, read-out: HASM-Thr pIC50 (converted)) was 1150 nM; in test [3] it was 10 µM. Besides, in test [1], the “HASM- Thr pIC25” value came to 6.59. The “HASM- Thr pIC75” value in test [1] was 5.34. In test [2], the “HASM - GM-CSF” value was determined as 11 ± 8. In the test on Pulmonary fibroblasts, the “pFib - bFGF” value turned out to be 5 ± 9.
